From patent publication US20060189608A1, “Methods for treating ocular angiogenesis, retinal edema, retinal ischemia, and diabetic retinopathy using selective RTK inhibitors” (Alcon, Inc., priority 2005, published 2006)

System: diabetes-induced retinal vascular permeability
Experiment: Diabetes-induced retinal vascular permeability, oral gavage, STZ rat model
Procedure: METHODS: Diabetes was induced in male Long-Evans rats with 65 mg/kg streptozotocin (STZ) after an overnight fast. […] After 2 weeks, jugular vein catheters were implanted 1 day prior to experimentation for the infusion of indicator dye. Retinal vascular permeability, RVP, was measured using Evan's blue albumin permeation (45 mg/kg) after a 2 hour circulation period.

## Cc1ccc(F)c(NC(=O)Nc2ccc(-c3cccc4[nH]nc(N)c34)cc2)c1 [AL-39324, N-[4-[3-amino-1H-indazol-4-yl)phenyl]-N′-(2-fluoro-5-methylphenyl)urea]
NDM treated at 5 mg/kg/d
  RVP: unchanged
oral, DM rats
  Blood glucose levels and body weights, DM control vs DM treatment groups: not different
oral, NDM and DM groups
  tolerability, systemic or ERG side effects: well tolerated by both NDM and DM groups with no observed systemic or ERG side effects
